Reference: patent EP2934149B1, “C6-AZASPIRO IMINOTHIADIAZINE DIOXIDES AS BACE INHIBITORS” (Merck Sharp & Dohme Corp., priority 2012, dated 2014)
pKi: −log10 of the molar value.

How the values were obtained:
[1] = biological target: soluble human BACE1 catalytic domain (Homo sapiens, UniProt P56817); assay: BACE1 HTRF FRET Assay; format: biochemical; details: Ki calculated from IC50 using the Cheng-Prusoff equation; QSY7-APPswe-Eu substrate 200 nM final, pH 5.0, 30° C
Description: A homogeneous time-resolved FRET assay can be used to determine IC50 values for inhibitors of the soluble human BACE1 catalytic domain. […] This substrate contains an N-terminal QSY7 moiety that serves as a quencher of the C-terminal Europium fluorophore (620nm Em). […] Inhibition of BACE1 cleavage of the QSY7-APP^swe-Eu substrate by inhibitors is manifested as a suppression of 620 nm fluorescence. […] The reactions are incubated at 30° C for 1.5 hours. The 620nm fluorescence is then read on a Rubystar HTRF plate reader (BMG Labtechnologies) using a 50 millisecond delay followed by a 400 millisecond acquisition time window. Inhibitor IC50 values are derived from non-linear regression analysis of concentration response curves.

[2] = biological target: T1, purified human autoBACE-2 (Homo sapiens, UniProt Q9Y5Z0); assay: BACE-2 Assay (BACE-HTRF assay); format: biochemical; details: Ki calculated from IC50 using the Cheng-Prusoff equation; QSY7-EISEVNLDAEFC-Eu-amide substrate 200 nM final, pH 5.0, 30°C; read-out: BACE2 Ki
T1 sequence (Q9Y5Z0 63-473 limits assumed): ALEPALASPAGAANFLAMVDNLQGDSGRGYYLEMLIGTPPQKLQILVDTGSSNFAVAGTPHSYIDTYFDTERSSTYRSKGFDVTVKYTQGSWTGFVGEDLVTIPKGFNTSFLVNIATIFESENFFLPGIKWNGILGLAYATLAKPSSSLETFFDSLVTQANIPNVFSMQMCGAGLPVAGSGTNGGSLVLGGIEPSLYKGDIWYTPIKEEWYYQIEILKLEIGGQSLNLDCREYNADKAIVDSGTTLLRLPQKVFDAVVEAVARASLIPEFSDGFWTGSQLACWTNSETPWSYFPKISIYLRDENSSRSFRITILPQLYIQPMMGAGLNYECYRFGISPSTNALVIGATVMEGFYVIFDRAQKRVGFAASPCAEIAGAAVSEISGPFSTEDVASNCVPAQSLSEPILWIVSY
Description: Inhibitor IC50's at purified human autoBACE-2 are determined in a time-resolved endpoint proteolysis assay that measures hydrolysis of the QSY7-[…]-Eu-amide FRET peptide substrate (BACE-HTRF assay). […] Inhibitor compounds, prepared at 3x the desired final concentration in 1x BACE assay buffer (20 mM sodium acetate pH 5.0,10% glycerol, 0.1% Brij-35) supplemented with 7.5% DMSO are pre-incubated with an equal volume of autoBACE-2 enzyme diluted in 1x BACE assay buffer (final enzyme concentration 1 nM) in black 384-well NUNC plates for 30 minutes at 30°C. […] DMSO is present at 5% final concentration in the assay. Following laser excitation of sample wells at 320 nm, the fluorescence signal at 620 nm is collected for 400 ms following a 50 µs delay on a RUBYstar HTRF plate reader (BMG Labtechnologies). Raw RFU data is normalized to maximum (1.0 nM BACE/DMSO) and minimum (no enzyme/DMSO) RFU values. […] The Ki values are calculated from the IC50 using the Cheng-Prusoff equation.

Sequence of soluble human BACE1 catalytic domain (P56817 75-416 limits assumed): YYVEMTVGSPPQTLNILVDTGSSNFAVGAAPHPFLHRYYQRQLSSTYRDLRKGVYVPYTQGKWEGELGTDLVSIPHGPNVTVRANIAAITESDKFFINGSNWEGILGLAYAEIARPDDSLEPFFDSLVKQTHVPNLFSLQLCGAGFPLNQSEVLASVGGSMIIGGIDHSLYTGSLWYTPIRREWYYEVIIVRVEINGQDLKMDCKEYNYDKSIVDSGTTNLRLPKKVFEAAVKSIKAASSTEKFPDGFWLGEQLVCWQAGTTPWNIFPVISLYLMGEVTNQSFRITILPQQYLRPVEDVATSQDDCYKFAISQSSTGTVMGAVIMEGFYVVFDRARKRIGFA

| Compound | pKi [1] | pKi [2] |
| --- | --- | --- |
| CN1C(=N)N[C@](C)(c2cc(NC(=O)c3ccc(F)cn3)ccc2F)C2(CCN(Cc3ccccc3)C2)S1(=O)=O (some centres unmarked) [Example 1] | 8.47 | 8.35 |
| CN1C(=N)N[C@](C)(c2cc(NC(=O)c3ccc(F)cn3)ccc2F)C2(CCNC2)S1(=O)=O (some centres unmarked) [Example 2] | 7.71 | 7.52 |
| CN1C(=N)N[C@](C)(c2cc(NC(=O)c3ccc(F)cn3)ccc2F)C2(CCN(S(C)(=O)=O)C2)S1(=O)=O (some centres unmarked) [Example 3] | 8.30 | 8.05 |
| CC(=O)N1CCC2(C1)[C@@](C)(c1cc(NC(=O)c3ccc(F)cn3)ccc1F)NC(=N)N(C)S2(=O)=O (some centres unmarked) [Example 4] | 8.43 | 8.05 |
| CN1C(=N)N[C@](C)(c2cc(NC(=O)c3ccc(F)cn3)ccc2F)C2(CCN(C(=O)C3CC3)C2)S1(=O)=O (some centres unmarked) [Example 5] | 8.70 | 8.51 |
| CN1C(=N)N[C@](C)(c2cc(NC(=O)c3ccc(F)cn3)ccc2F)C2(CCN(C(=O)CC3CC3)C2)S1(=O)=O (some centres unmarked) [Example 6] | 8.57 | 8.28 |
| CC(C)CC(=O)N1CCC2(C1)[C@@](C)(c1cc(NC(=O)c3ccc(F)cn3)ccc1F)NC(=N)N(C)S2(=O)=O (some centres unmarked) [Example 7] | 8.55 | 8.24 |
| COc1ccc(C(=O)Nc2ccc(F)c([C@@]3(C)NC(=N)N(C)S(=O)(=O)[C@]34CCN(Cc3cocn3)C4)c2)nc1 [Example 18] | 7.33 | 6.80 |
| COc1ccc(C(=O)Nc2ccc(F)c([C@@]3(C)NC(=N)N(C)S(=O)(=O)[C@]34CCN(Cc3cscn3)C4)c2)nc1 [Example 19] | 7.70 | 7.15 |
| COc1ccc(C(=O)Nc2ccc(F)c([C@@]3(C)NC(=N)N(C)S(=O)(=O)[C@]34CCN(CC3CCOC3)C4)c2)nc1 (some centres unmarked) [Example 20] | 7.29 | 6.73 |
| COc1ccc(C(=O)Nc2ccc(F)c([C@@]3(C)NC(=N)N(C)S(=O)(=O)[C@]34CCN(CC3CC(OC)C3)C4)c2)nc1 (some centres unmarked) [Example 21] | 7.04 | 6.70 |
| COc1ccc(C(=O)Nc2ccc(F)c([C@@]3(C)NC(=N)N(C)S(=O)(=O)[C@]34CCN(Cc3ccccn3)C4)c2)nc1 [Example 22] | 7.59 | 7.10 |
| COc1ccc(C(=O)Nc2ccc(F)c([C@@]3(C)NC(=N)N(C)S(=O)(=O)[C@]34CCN(Cc3cccnc3)C4)c2)nc1 [Example 23] | 7.52 | 6.85 |
| COc1ccc(C(=O)Nc2ccc(F)c([C@@]3(C)NC(=N)N(C)S(=O)(=O)[C@]34CCN(CC3CC3)C4)c2)nc1 [Example 24] | 7.47 | 6.89 |
| COc1ccc(C(=O)Nc2ccc(F)c([C@@]3(C)NC(=N)N(C)S(=O)(=O)[C@]34CCN(Cc3cncnc3)C4)c2)nc1 [Example 26] | 7.29 | 6.48 |
| COc1ccc(C(=O)Nc2ccc(F)c([C@@]3(C)NC(=N)N(C)S(=O)(=O)[C@]34CCN(Cc3cnn(C)c3)C4)c2)nc1 [Example 27] | 7.27 | 6.41 |
| COc1ccc(C(=O)Nc2ccc(F)c([C@@]3(C)NC(=N)N(C)S(=O)(=O)[C@]34CCN(Cc3cnco3)C4)c2)nc1 [Example 28] | 7.55 | 6.63 |
| CN1C(=N)N[C@](C)(c2cc(NC(=O)c3ccc(F)cn3)ccc2F)[C@]2(CCN(Cc3ccccn3)C2)S1(=O)=O [Example 41] | 8.52 | 8.22 |
| CN1C(=N)N[C@](C)(c2cc(NC(=O)c3ccc(F)cn3)ccc2F)[C@@]2(CCN(Cc3cscn3)C2)S1(=O)=O [Example 42] | 7.49 | 7.60 |
| COC1CC(CN2CC[C@]3(C2)[C@@](C)(c2cc(NC(=O)c4ccc(F)cn4)ccc2F)NC(=N)N(C)S3(=O)=O)C1 (some centres unmarked) [Example 44] | 6.92 | 7.28 |
| CN1C(=N)N[C@](C)(c2cc(NC(=O)c3ccc(F)cn3)ccc2F)[C@@]2(CCN(Cc3ccccn3)C2)S1(=O)=O [Example 45] | 7.48 | 7.64 |
| CN1C(=N)N[C@](C)(c2cc(NC(=O)c3ccc(F)cn3)ccc2F)[C@@]2(CCN(Cc3cccnc3)C2)S1(=O)=O [Example 46] | 7.27 | 7.40 |

| Compound | pKi [1] | pKi [2] |
| --- | --- | --- |
| CN1C(=N)N[C@](C)(c2cc(NC(=O)c3ccc(F)cn3)ccc2F)[C@@]2(CCN(CC3CC3)C2)S1(=O)=O [Example 47] | 7.24 | 7.29 |
| CN1C(=N)N[C@](C)(c2cc(NC(=O)c3ccc(F)cn3)ccc2F)[C@@]2(CCN(Cc3cocn3)C2)S1(=O)=O [Example 49] | 7.48 | 7.68 |
| CN1C(=N)N[C@](C)(c2cc(NC(=O)c3ccc(F)cn3)ccc2F)[C@@]2(CCN(Cc3cncnc3)C2)S1(=O)=O [Example 50] | 7.15 | 7.11 |
| CN1C(=N)N[C@](C)(c2cc(NC(=O)c3ccc(F)cn3)ccc2F)[C@@]2(CCN(Cc3cnn(C)c3)C2)S1(=O)=O [Example 51] | 6.82 | 6.74 |
| CCCCN1CC[C@]2(C1)[C@@](C)(c1cc(NC(=O)c3ccc(F)cn3)ccc1F)NC(=N)N(C)S2(=O)=O [Example 52] | 7.14 | 7.21 |
| CN1C(=N)N[C@](C)(c2cc(NC(=O)c3ccc(F)cn3)ccc2F)[C@@]2(CCN(Cc3ccncc3)C2)S1(=O)=O [Example 53] | 7.08 | 7.21 |
| CN1C(=N)N[C@](C)(c2cc(NC(=O)c3ccc(F)cn3)ccc2F)[C@@]2(CCN(Cc3cnco3)C2)S1(=O)=O [Example 54] | 7.27 | 7.13 |
| COc1ccc(C(=O)Nc2ccc(F)c([C@@]3(C)NC(=N)N(C)S(=O)(=O)[C@@]34CCN(S(C)(=O)=O)C4)c2)nc1 [Example 55] | 8.52 | 8.00 |
| CCS(=O)(=O)N1CC[C@@]2(C1)[C@@](C)(c1cc(NC(=O)c3ccc(OC)cn3)ccc1F)NC(=N)N(C)S2(=O)=O [Example 56] | 9.00 | 8.22 |
| COc1ccc(C(=O)Nc2ccc(F)c([C@@]3(C)NC(=N)N(C)S(=O)(=O)[C@@]34CCN(S(=O)(=O)CC(C)C)C4)c2)nc1 [Example 57] | 9.00 | 8.30 |
| COc1ccc(C(=O)Nc2ccc(F)c([C@@]3(C)NC(=N)N(C)S(=O)(=O)[C@@]34CCN(S(=O)(=O)c3ccc(F)cc3)C4)c2)nc1 [Example 58] | 8.52 | 7.70 |
| COc1ccc(C(=O)Nc2ccc(F)c([C@@]3(C)NC(=N)N(C)S(=O)(=O)[C@@]34CCN(S(=O)(=O)c3ccccc3)C4)c2)nc1 [Example 59] | 8.52 | 7.80 |
| COc1ccc(C(=O)Nc2ccc(F)c([C@@]3(C)NC(=N)N(C)S(=O)(=O)[C@@]34CCN(S(=O)(=O)C3CC3)C4)c2)nc1 [Example 60] | 9.00 | 8.40 |
| COc1ccc(C(=O)Nc2ccc(F)c([C@@]3(C)NC(=N)N(C)S(=O)(=O)[C@@]34CCN(S(=O)(=O)c3cn(C)cn3)C4)c2)nc1 [Example 61] | 8.22 | 7.42 |
| COc1ccc(C(=O)Nc2ccc(F)c([C@@]3(C)NC(=N)N(C)S(=O)(=O)[C@@]34CCN(S(=O)(=O)CC3CCCO3)C4)c2)nc1 (some centres unmarked) [Example 62] | 8.52 | 7.72 |
| COc1ccc(C(=O)Nc2ccc(F)c([C@@]3(C)NC(=N)N(C)S(=O)(=O)[C@]34CCN(S(=O)(=O)c3ccccc3)C4)c2)nc1 [Example 63] | 7.92 | 7.62 |
| COc1ccc(C(=O)Nc2ccc(F)c([C@@]3(C)NC(=N)N(C)S(=O)(=O)[C@]34CCN(S(=O)(=O)C3CC3)C4)c2)nc1 [Example 64] | 7.40 | 6.85 |
| COc1ccc(C(=O)Nc2ccc(F)c([C@@]3(C)NC(=N)N(C)S(=O)(=O)[C@]34CCN(S(=O)(=O)c3cn(C)cn3)C4)c2)nc1 [Example 65] | 7.54 | 7.17 |
| COc1ccc(C(=O)Nc2ccc(F)c([C@@]3(C)NC(=N)N(C)S(=O)(=O)[C@]34CCN(S(=O)(=O)CC3CCCO3)C4)c2)nc1 (some centres unmarked) [Example 66] | 7.49 | 7.06 |
| COc1ccc(C(=O)Nc2ccc(F)c([C@@]3(C)NC(=N)N(C)S(=O)(=O)[C@]34CCN(S(=O)(=O)c3cn[nH]c3)C4)c2)nc1 [Example 67] | 7.70 | 7.40 |
| COc1ccc(C(=O)Nc2ccc(F)c([C@@]3(C)NC(=N)N(C)S(=O)(=O)[C@]34CCN(S(C)(=O)=O)C4)c2)nc1 [Example 68] | 7.46 | 6.69 |
